What was measured:
[1] = test system: Brassica; experiment: Soluble protein content of transgenic Brassica; assay type: in vivo, Brassica napus L.; conditions: three lines
Experimental: In this invention, three lines of mCherry transgenic Brassica were selected and the content of soluble protein was measured and compared with that in WT. The content of soluble protein in mCherry transgenic Brassica was increased.

[2] = In vitro H2O hydrolysis and oxygen evolution catalyzed by LEAT protein under light; assay type: biochemical; design: key to O2 evolution activity: +: similar O2 evolution activity as that of YFP; ++: higher O2 evolution activity than that of YFP by at least one order of magnitude; weak: lower activity than that of YFP by at least one order of magnitude
Experimental: 1.85 ml of 50 mM phosphate buffer (pH6.5) was added in the reaction vessel of Clark-type oxygen electrode, then LEAT proteins (at a final concentration of 0.02-1 μg/ml) and 400 μM 2,3,5-trimethyl-1,4-benzoquinone (TMBQ) or other quinones were sequentially added into the buffer in dark. The oxygen evolution rate was measured under the light with corresponding excitation wave length for LEAT proteins and light intensity at 1-2 μmol m^−2 s^−1.

[3] = test system: Brassica; experiment: Net photosynthetic rate of transgenic Brassica; assay type: in vivo, Brassica napus L.; conditions: for net photosynthetic rate, increase compared with wild type: transgenic Brassica
Experimental: (§1) Gas exchange was measured using photosynthetic infrared gas analysis system (LI-6400, Li-Cor Inc, Lincoln, Nebr., USA). The net photosynthetic rate (Pn) and stomatal conductance (Gs) was measured. Sunlight and artificial light were used as artificial light sources for measurement. The ambient CO2 during the measurements was controlled at 400 μmol mol^−1. The ambient temperature was controlled at the temperature for plant growth. Six leaves were measured for each line of plant. In addition, for the CO2 response curve of the plant leaf, the light intensity was set at PPFD of 1500 μmol m^−2s^−1 with artificial light source. The Pn under 50-1200 ppm CO2 was measured.

[4] = test system: Brassica; experiment: Leaf absorption spectrum of transgenic Brassica; assay type: in vivo, Brassica napus L.; conditions: different light intensities
Experimental: Reflectance and transmittance of Brassica leaves under different light intensities were measured using fiber optic spectrometer with an integrating sphere (Ocean Optics, Britain). The absorbance of the leaves under different light intensities was calculated with the equation: absorbance=100%) (without leaf)−transmittance−reflectance.

[5] = test system: Brassica; experiment: Growth, biomass and yield of transgenic Brassica; assay type: in vivo, Brassica napus L.; conditions: for fresh and dry weights vs WT and empty vector control: 4-week-old transgenic Brassica; for plant growth vs WT and empty vector control: 3 weeks
Source text: FIG. 14. (A) WT, empty vector control (pHB) and mCherry transgenic Brassica (L1-L3) were germinated and grown for one week in the phytotron under white light (PPFD:250 μmol m^−2s^−1). Then the plants were moved and grown under white light, green light (PFD: 60 μmol m^−2s^−1) or red+blue light (red light PFD; 60 μmol m^−2s^−1, blue light PFD; 10 μmol m^−2s^−1) for another 3 weeks and photos were taken, (B) Comparison of the fresh weights and dry weights of WT and mCherry transgenic Brassica grown under white light, green light or red+blue light for four weeks. Values in the figures are means±SD, for WT, n=10, for transgenic plant transformed with empty vector control pHB and mCherry, data were the averages of three independent lines and 10 plants for each line. **p≦0.01. (C) Net photosynthetic rate of WT and mCherry transgenic Brassica measured under different light qualities. Nine-week-old WT and mCherry transgenic Brassica grown in the phytotron (PPFD: 250 μmol m^−2s^−1) were transferred and treated with different qualities of light for 4 days and net photosynthetic rate was measured. (D) Net photosynthetic rate of WT and mCherry transgenic Brassica grow in the natural field measured under different PPFD as light source. Net photosynthetic rate was measured in situ between 10:00 am and 12:00 pm. […] FIG. 15. (A) Measurement of the fresh weight and dry weight per plant of 7-week-old WT and mCherry transgenic Brassica plants grown in the natural field conditions. Values in the figures are means±SD, n=10. *p≦0.05, **p≦0.01. (B) Comparison of the plant size, silique size, seed size, grain yield per plant and 1000-seed weight at the harvesting time. Values in the figures are means±SD, n=10. *p≦0.05, **p≦0.01. Wild type (WT), transgenic Brassica with empty vector (pHB) and mCherry transgenic Brassica (L1-L3) were germinated in the phytotron under white light (light intensity: 250 μmol m^−2s^−1) for 1 week. Then the plants were transferred and continued to grow under white light, green light (light intensity: 60 μmol m^−2s^−1), red+blue light (intensity of red light: 60 μmol m^−2s^−1; intensity of blue light: 10 μmol m^−2s^−1). The […] were taken three weeks after transfer.

[6] = test system: Brassica; experiment: Stomatal conductance and intercellular CO2 concentration of transgenic Brassica; assay type: in vivo, Brassica napus L.
Experimental: as §1, with “plant.” for “plant. In addition, for the CO2 response curve of the plant leaf, the light intensity was set at PPFD of 1500 μmol m^−2s^−1 with artificial light source. The Pn under 50-1200 ppm CO2 was measured.”

[7] = test system: wheat; experiment: Phenotype of transgenic wheat; assay type: in vivo
Experimental: Wheat transformation was performed with method described in Supartana P, Shimizu T, Nogawa M, Shioiri H, Nakajima T, Haramoto N, Nozue M, and Kojima M. Development of simple and efficient in Planta transformation method for wheat (Triticum aestivum L.) Using Agrobacterium tumefaciens, Journal of Bioscience and Bioengineering 102, 162-170.

[8] = test system: Brassica; experiment: Redox metabolites (NAD+/NADH, NADP+/NADPH, GSSG/GSH, ASC/DHA) in transgenic Brassica leaves; assay type: in vivo, Brassica napus L.; conditions: transgenic Brassica transferred from red+blue light to white light
Experimental: Leaves were from the 4-week-old Brassica plants grown under white light or red+blue light, or 2 h after being switched from red+blue light to white light. Extraction of metabolites from leaves and measurement of NAD^+/NADH, NADP^+/NADPH, GSSG/GSH and ASC/DHA follows G. Queval, G. Noctor, Anal Biochem. 363, 58 (2007).

[9] = test system: Atp B, D1, Psa D, Lhcb1, Lhca1 and cyt f; experiment: Western blot of photosynthesis related proteins in transgenic Brassica leaves; assay type: in vivo, Brassica napus L.
[10] = transgenic Brassica, young seedling stage

## mCherry: red fluorescent protein, amino acid sequence SEQ ID NO: 2
[1]
  content of soluble protein vs WT: increased
[2]; TMBQ substituted with DQ or UQ
  water photohydrolysis and O2 evolution activity under light: does not have water photohydrolysis and O2 evolution activity
[2]; different quinones, under light
  activity of water hydrolysis among the quinones tested (order): TMBQ>DMBQ2>MBQ>DMBQ1
[2]; water hydrolysis and O2 evolution under light, relative to YFP
  O2 evolution activity: +
[3]; phytotron-grown transgenic Brassica, white light and green light
  net photosynthesis rate vs WT: significantly increased
[3]; transgenic Brassica in natural field conditions, different light intensities
  net photosynthesis rate vs WT and empty vector: significantly increased
[3]; 400 μmol m^−2s^−1
  net photosynthetic rate, increase compared with wild type: 31%
[3]; 800 μmol m^−2s^−1
  net photosynthetic rate, increase compared with wild type: 28%
[3]; 1200 μmol m^−2s^−1
  net photosynthetic rate, increase compared with wild type: 16%
[4]
  light energy absorbed by leaves: significantly increased
[5]; red+blue light
  fresh and dry weights vs WT and empty vector control: no significant difference
[5]; white or green light
  fresh and dry weights vs WT and empty vector control: significantly increased
[5]; transgenic Brassica
  1000-seed weight, increase vs WT: 25%
  grain yield per plant, increase vs WT: 30 to 100%
[5]; transgenic Brassica at harvest
  1000-seed weight vs WT (in words): increased
  grain yield per plant vs WT (in words): increased
  seed size vs WT: significantly increased
[5]; transgenic Brassica, natural field conditions
  growth and biomass accumulation: stimulated the growth and biomass accumulation
[5]; transgenic Brassica, red+blue light
  plant growth vs WT and empty vector control: No significant difference
[5]; transgenic Brassica, white light and green light
  plant growth vs WT and empty vector control: grew better than WT and empty vector control plants
[5]; [10]
  dry weight, increase vs WT: 78%
  fresh weight, increase vs WT: 66.7%
[6]; transgenic Brassica
  stomatal conductance (Gs) vs WT: increased
[6]; transgenic Brassica leaves
  intercellular CO2 concentration (Ci): did not lead to the decrease
[7]
  seed size and grain yield per plant vs WT: increase
  seed size and panicle size vs WT: significantly increased
[8]
  content of reduced metabolites or ratio of reduced to oxidized metabolites (NADH, NADPH, ascorbate, GSH): increased
[9]; transgenic Brassica grown under red+blue light
  expression of photosynthesis related proteins vs WT: no significant difference
[9]; transgenic Brassica grown under white light
  expression of photosynthesis related proteins vs WT: significantly increased

From patent US20170037425A1, “METHOD FOR IMPROVING PLANT TRAIT” (SHANGHAI INSTITUTES FOR BIOLOGICAL SCIENCES, CHINESE …, priority 2012, published 2017)
